Reference: ChEMBL document CHEMBL1139689, “Discovery and preliminary structure-activity relationship studies of novel benzotriazine based compounds as Src inhibitors” (Bioorg Med Chem Lett, 2006)

How the values were obtained:
[1] = biological target: Proto-oncogene tyrosine-protein kinase Src (Homo sapiens, UniProt P12931)
[2] = biological target: Tyrosine-protein kinase Lyn (Homo sapiens, UniProt P07948); assay: Inhibition of Lyn
[3] = biological target: Tyrosine-protein kinase Fyn (Homo sapiens, UniProt P06241); assay: Inhibition of Fyn
[4] = biological target: Tyrosine-protein kinase CSK (Homo sapiens, UniProt P41240); assay: Inhibition of CSK
[5] = biological target: Tyrosine-protein kinase Blk (Homo sapiens, UniProt P51451); assay: Inhibition of Blk
[6] = biological target: Vascular endothelial growth factor receptor 2 (Homo sapiens, UniProt P35968); assay: Inhibition of VEGFR2
[7] = biological target: Angiopoietin-1 receptor (Homo sapiens, UniProt Q02763); assay: Inhibition of Tie2
[8] = biological target: Ribosomal protein S6 kinase beta-1 (Homo sapiens, UniProt P23443); assay: Inhibition of p70S6K
[9] = biological target: Serine/threonine-protein kinase RAF and Dual specificity mitogen-activated protein kinase kinase 1 (Raf/MEK) (Homo sapiens, UniProt P04049+Q02750); assay: Inhibition of Raf1-MEK1; type: protein assay
[10] = biological target: RAF proto-oncogene serine/threonine-protein kinase (Homo sapiens, UniProt P04049); assay: Inhibition of Raf1 kinase
[11] = biological target: Tyrosine-protein kinase ABL1 (Homo sapiens, UniProt P00519, T315I); assay: Inhibition of Abl T315I mutant
[12] = biological target: Tyrosine-protein kinase ABL1 (Homo sapiens, UniProt P00519); assay: Inhibition of Abl

Chain of Proto-oncogene tyrosine-protein kinase Src (P12931 2-536 limits assumed): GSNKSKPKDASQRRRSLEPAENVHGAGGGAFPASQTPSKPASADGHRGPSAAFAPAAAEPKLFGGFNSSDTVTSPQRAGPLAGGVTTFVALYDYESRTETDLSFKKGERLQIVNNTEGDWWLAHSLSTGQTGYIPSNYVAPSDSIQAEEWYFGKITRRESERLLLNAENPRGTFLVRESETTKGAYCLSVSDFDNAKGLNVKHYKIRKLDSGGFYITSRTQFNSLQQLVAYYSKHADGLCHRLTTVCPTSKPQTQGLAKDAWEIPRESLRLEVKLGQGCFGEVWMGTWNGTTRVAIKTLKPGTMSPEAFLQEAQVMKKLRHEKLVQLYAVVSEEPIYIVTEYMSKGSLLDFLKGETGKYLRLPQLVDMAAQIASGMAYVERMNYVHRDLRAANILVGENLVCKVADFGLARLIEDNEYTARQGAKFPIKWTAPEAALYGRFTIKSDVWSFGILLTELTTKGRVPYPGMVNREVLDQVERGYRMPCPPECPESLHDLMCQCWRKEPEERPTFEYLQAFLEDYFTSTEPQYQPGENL
Chain of Ribosomal protein S6 kinase beta-1 (P23443 whole entry): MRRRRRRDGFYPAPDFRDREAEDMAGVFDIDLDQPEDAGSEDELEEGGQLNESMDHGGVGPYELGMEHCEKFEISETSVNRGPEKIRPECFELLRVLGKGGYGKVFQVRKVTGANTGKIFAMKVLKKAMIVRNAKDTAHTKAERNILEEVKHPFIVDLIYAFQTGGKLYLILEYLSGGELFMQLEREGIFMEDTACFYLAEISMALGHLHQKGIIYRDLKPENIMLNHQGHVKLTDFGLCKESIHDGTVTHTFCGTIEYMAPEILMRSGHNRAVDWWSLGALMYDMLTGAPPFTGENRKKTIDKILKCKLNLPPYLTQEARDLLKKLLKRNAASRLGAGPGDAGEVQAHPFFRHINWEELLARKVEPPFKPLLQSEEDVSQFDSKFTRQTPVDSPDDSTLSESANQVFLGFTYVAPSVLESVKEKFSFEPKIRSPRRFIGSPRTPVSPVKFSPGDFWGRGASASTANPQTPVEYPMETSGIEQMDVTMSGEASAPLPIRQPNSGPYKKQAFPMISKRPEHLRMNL
Chain of RAF proto-oncogene serine/threonine-protein kinase (P04049 whole entry): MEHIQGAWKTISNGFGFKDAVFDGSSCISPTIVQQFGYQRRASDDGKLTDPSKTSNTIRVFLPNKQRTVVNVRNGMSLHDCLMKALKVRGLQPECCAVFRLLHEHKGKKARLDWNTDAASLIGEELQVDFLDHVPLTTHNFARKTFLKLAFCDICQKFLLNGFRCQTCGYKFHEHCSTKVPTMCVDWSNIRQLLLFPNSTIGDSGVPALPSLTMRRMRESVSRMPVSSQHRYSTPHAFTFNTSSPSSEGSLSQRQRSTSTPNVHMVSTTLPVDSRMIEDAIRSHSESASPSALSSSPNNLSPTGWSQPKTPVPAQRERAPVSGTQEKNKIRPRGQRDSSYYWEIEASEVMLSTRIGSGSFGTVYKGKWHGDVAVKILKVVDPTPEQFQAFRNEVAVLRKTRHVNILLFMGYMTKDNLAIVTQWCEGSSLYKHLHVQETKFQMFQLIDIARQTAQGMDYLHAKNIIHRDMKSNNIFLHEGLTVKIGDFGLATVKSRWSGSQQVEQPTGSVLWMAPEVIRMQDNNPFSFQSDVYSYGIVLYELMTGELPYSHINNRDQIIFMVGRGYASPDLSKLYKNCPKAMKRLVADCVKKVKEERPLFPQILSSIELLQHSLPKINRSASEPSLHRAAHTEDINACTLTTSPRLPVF
Chain of Vascular endothelial growth factor receptor 2 (P35968 whole entry): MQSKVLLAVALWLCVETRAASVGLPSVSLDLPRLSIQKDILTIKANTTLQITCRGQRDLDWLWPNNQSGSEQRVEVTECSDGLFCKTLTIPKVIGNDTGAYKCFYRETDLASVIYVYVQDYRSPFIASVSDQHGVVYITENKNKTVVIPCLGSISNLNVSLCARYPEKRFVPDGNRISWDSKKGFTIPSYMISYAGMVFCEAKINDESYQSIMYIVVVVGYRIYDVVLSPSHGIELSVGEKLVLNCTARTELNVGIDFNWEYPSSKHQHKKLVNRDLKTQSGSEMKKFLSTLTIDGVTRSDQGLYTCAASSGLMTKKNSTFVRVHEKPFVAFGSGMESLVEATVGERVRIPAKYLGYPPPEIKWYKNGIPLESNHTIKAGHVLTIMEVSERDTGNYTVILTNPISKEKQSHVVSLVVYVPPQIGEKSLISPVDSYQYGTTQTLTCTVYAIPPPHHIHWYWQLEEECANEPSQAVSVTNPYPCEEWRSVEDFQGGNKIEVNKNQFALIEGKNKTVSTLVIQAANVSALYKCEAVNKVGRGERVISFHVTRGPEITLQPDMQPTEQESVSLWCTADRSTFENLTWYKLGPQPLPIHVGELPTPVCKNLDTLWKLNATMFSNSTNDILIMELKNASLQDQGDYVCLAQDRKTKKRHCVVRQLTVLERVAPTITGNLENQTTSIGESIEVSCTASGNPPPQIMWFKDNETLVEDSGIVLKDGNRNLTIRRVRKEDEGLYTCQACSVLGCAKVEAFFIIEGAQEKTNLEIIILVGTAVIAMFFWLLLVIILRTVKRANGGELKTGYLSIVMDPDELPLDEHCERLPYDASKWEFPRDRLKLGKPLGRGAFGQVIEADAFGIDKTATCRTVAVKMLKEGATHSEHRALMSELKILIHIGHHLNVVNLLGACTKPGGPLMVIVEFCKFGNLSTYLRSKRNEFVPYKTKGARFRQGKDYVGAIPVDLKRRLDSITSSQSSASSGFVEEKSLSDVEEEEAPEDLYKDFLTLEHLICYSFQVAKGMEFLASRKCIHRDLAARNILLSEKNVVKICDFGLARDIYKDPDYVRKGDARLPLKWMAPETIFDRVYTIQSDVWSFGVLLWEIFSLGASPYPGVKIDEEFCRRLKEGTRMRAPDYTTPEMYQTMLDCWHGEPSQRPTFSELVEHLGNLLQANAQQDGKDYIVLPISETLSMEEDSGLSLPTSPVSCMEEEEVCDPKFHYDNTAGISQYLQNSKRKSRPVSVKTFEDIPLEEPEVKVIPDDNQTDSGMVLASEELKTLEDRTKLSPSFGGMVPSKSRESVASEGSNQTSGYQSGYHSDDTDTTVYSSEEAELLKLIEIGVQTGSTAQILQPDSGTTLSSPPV
Chain of Tyrosine-protein kinase Lyn (P07948 whole entry): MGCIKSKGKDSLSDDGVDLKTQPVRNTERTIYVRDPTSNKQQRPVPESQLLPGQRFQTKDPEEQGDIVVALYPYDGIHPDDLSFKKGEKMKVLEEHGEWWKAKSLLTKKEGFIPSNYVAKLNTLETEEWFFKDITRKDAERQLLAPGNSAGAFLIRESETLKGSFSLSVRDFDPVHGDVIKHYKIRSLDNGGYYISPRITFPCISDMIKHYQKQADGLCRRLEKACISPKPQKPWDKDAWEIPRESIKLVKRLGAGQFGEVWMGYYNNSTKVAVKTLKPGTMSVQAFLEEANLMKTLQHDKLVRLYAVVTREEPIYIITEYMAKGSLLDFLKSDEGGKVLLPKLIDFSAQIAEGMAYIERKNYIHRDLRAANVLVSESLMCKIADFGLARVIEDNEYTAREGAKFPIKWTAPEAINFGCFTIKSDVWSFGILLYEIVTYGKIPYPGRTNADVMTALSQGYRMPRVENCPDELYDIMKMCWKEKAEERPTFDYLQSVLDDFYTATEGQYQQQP
Chain of Angiopoietin-1 receptor (Q02763 whole entry): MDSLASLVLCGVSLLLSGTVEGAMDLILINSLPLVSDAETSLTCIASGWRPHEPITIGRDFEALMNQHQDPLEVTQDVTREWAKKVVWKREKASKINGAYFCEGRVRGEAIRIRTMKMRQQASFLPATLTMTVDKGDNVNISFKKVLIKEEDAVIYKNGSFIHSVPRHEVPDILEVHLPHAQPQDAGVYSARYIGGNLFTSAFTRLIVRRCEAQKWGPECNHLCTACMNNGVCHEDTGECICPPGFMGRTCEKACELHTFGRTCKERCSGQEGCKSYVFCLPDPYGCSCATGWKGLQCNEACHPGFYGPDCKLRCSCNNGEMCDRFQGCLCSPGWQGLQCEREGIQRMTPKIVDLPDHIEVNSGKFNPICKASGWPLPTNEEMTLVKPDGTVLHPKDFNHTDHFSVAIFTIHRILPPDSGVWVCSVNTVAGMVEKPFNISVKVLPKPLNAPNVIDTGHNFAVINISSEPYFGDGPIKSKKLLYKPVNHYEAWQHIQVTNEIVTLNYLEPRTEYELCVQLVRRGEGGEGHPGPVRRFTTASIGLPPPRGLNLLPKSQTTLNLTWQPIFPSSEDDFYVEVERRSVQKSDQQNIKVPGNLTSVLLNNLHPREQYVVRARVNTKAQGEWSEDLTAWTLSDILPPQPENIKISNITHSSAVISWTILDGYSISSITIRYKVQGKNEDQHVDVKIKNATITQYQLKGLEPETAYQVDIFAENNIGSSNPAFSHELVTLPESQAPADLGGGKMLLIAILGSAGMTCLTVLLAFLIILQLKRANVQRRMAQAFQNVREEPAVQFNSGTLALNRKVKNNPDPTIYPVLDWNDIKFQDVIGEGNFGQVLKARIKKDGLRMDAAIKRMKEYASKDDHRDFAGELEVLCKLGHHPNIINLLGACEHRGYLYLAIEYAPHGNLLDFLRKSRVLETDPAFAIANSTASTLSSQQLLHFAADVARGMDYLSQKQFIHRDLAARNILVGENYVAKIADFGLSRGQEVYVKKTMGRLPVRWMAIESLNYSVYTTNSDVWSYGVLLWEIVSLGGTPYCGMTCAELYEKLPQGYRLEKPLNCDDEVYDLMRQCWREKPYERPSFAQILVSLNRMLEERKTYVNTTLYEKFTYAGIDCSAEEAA

| SMILES | IC50 [1] [nM] | further results |
| --- | --- | --- |
| Cc1cccc(C)c1-c1cc(C)c2nc(Nc3cccc(S(=O)(=O)N4CCNCC4)c3)nnc2c1 | 480 | – |
| Cc1cc(C)c(-c2cc(C)c3nc(Nc4ccccc4)nnc3c2)c(C)c1 | > 50000 | – |
| Cc1cccc(C)c1-c1cc(C)c2nc(Nc3cccc4cccnc34)nnc2c1 | > 50000 | – |
| CCOC1CN(C)CCN1c1cccc(Nc2nnc3cc(-c4c(C)cccc4C)cc(C)c3n2)c1 (stereo not given) | 41 | – |
| Nc1nnc2cc(-c3ccccc3)ccc2n1 | > 50000 | – |
| Cc1cccc(Nc2nnc3cc(-c4c(C)cccc4C)cc(C)c3n2)c1C | > 50000 | – |
| CCN(CC)CCOc1ccc(Nc2nnc3cc(-c4c(C)cccc4C)cc(C)c3n2)cc1 | 10 | – |
| CCCCc1ccc(Nc2nnc3cc(-c4c(C)cccc4C)cc(C)c3n2)cc1 | > 50000 | – |
| Cc1ccc(C)c(Nc2nnc3cc(-c4c(C)cccc4C)cc(C)c3n2)c1 | > 50000 | – |
| CCCOC1CN(C)CCN1c1cccc(Nc2nnc3cc(-c4c(C)cccc4C)cc(C)c3n2)c1 (stereo not given) | 40 | – |
| COc1ccccc1Nc1nnc2cc(-c3c(C)cccc3C)cc(C)c2n1 | > 50000 | – |
| Nc1nnc2cc(-c3ccc4c(c3)OCO4)ccc2n1 | 12000 | – |
| Nc1nnc2cc(-c3ccc4ccccc4c3)ccc2n1 | 5200 | – |
| CCOC1CN(c2ccc(Nc3nnc4cc(-c5c(C)cccc5C)cc(C)c4n3)cc2)CCO1 (stereo not given) | 32 | – |
| Cc1cccc(C)c1-c1cc(C)c2nc(Nc3ccc(OCCN4CCCC4)cc3)nnc2c1 | – | IC50 [2]: 21 nM; IC50 [3]: 23 nM; IC50 [4]: 659 nM; IC50 [5]: 1320 nM; IC50 [6]: 555 nM; IC50 [7]: 678 nM; IC50 [8]: 2710 nM; IC50 [9]: 69 nM; IC50 [10]: 68 nM; IC50 [11]: 5990 nM; IC50 [12]: 20 nM |

Further lines, with some results ahead:

| IC50 [1] [nM] | SMILES | further results |
| --- | --- | --- |
| 3600 | Cc1cc(-c2c(Cl)cccc2Cl)cc2nnc(N)nc12 | – |
| 7400 | Cc1cccc(C)c1-c1cc(C)c2nc(N)nnc2c1 | – |
| 1500 | Cc1cc(-c2cc(O)ccc2Cl)cc2nnc(N)nc12 | – |
| > 50000 | Cc1cccc(C)c1-c1cc(C)c2nc(Nc3ccccn3)nnc2c1 | – |
| 40 | Cc1cccc(C)c1-c1cc(C)c2nc(Nc3ccncc3)nnc2c1 | – |
| > 50000 | CC(=O)Nc1nnc2cc(-c3c(C)cccc3C)cc(C)c2n1 | – |
| 2200 | Cc1cccc(C)c1-c1ccc2nc(N)nnc2c1 | – |
| 410 | Cc1cccc(C)c1-c1cc(C)c2nc(Nc3ccccc3)nnc2c1 | – |
| > 50000 | Cc1cc(-c2ccccc2Cl)cc2nnc(N)nc12 | – |
| > 50000 | Cc1ccc(Nc2nnc3cc(-c4c(C)cccc4C)cc(C)c3n2)c(C)c1 | – |
